Assay results published in patent publication US5763249A, “Antibody-mediated reduction of α-ketoamides” (The Regents of the University of California, priority 1991, dated 1998).

What was measured:
[1] = target: monoclonal antibody A5, specific for (raised against) the phosphonate hapten 3; assay: Fluorescence quenching binding of inhibitor to antibody A5; settings: from fluorescence quenching experiments; inhibitor of the antibody-catalyzed reaction
Procedure: (§1) Greater than 25 turnovers were measured with no apparent change in Vmax.

[2] = test system: monoclonal antibody A5, specific for (raised against) the phosphonate hapten 3; assay: Antibody A5-catalysed NaBH3CN-dependent reduction of ketoamide 1, steady-state kinetics (HPLC, Lineweaver Burk); assay type: biochemical; settings: substrate ketoamide 1; 13μM antibody, 1mM NaBH3CN, 22° C, 50mM NaCl, 50mM MES buffer, 10% methanol
Procedure: Monoclonal antibodies specific for the phosphonate 3 were purified to homogeneity by chromatography on protein-A coupled sepharose, as determined by polyacrylamide gel electrophoresis. Eight of these antibodies were assayed for their ability to reduce the ketoamide 1 by high performance liquid chromatography (HPLC). The (S)-(--)-α-methylbenzylamine group was incorporated into the ketoacid substrate to facilitate analysis of reaction specificity, it having previously been shown that antibodies specific for the phosphonate 3 are relatively insensitive to substitutions in the aliphatic linker. The ketoamide 1 was prepared by a modification of the method of Westerberg and coworkers (Westerberg, D.A., et aL, J. Med Chem. 1989, 32, 236) for the preparation of 4-nitrophenylpyruvic acid. […]
Consequently, all kinetic parameters were measured in the presence of 13μM antibody, 1mM NaBH3 CN at 22° C in 50mM NaCl, 50mM MES buffer. […] Initial reaction rates were determined by measuring the amounts of 1 and 2 (both diastereomers) relative to a p-cresol internal standard using analytical reverse-phase HPLC (Rainin CYNAMAX MICROSORB C18, a common silica-C18 HPLC column packing, with a continuous phase consisting of 40-80% of TFA/CH3 CN in 0.1% aqueous TFA).
as §1

| Structure (SMILES) | Kd [1] | Km [2] | κcat [2] |
| --- | --- | --- | --- |
| COP(=O)(O)Oc1ccc([N+](=O)[O-])cc1 [4-nitrophenyl methylphosphate] | 0.61 µM |  |  |
| CC(NC(=O)C(=O)Cc1ccc([N+](=O)[O-])cc1)c1ccccc1 (stereo not drawn) [compound 1, 1-(p-nitrobenzyl)-2-(α-methyl-benzylamino)ethanedione] |  | 1240 µM | 0.104 min⁻¹ |
